# Laboratory results published in PMC4374917, “Identification of Small Molecules that Disrupt Signaling between ABL and Its Positive Regulator RIN1” (PLoS ONE, 2015).
# Like-named read-outs stand apart in the source and are kept apart here.
# Tests used:
# [1] = target: T1, ABL1-eGFP (CRK substrate) (Homo sapiens, UniProt P00519); assay: In vitro kinase assay for direct ABL inhibitors; format: biochemical; settings: 10 μM test compound, 0.5 nM ABL-eGFP, 2 μM CRK, 30 minutes at 30°C, anti-phosphotyrosine immunoblot
# T1 construct: The ABL1 amino terminus was amplified from AblWT1-531 (gift of Dr. John Kuriyan); made in house; host or cells: Sf9 insect cells (baculovirus, pFastBac1)
# Description: To identify these direct ABL kinase inhibitors, we screened the compounds using an in vitro kinase assay. Purified ABL1-eGFP was incubated with CRK, a well-characterized substrate, in kinase buffer containing ATP.
# 0.5 nM purified ABL-eGFP was mixed with 2 μM CRK and 10 μM test compound and incubated in kinase buffer for 30 minutes at 30°C. Samples were analyzed by immunoblot using anti-phosphotyrosine. All the hits were screened, and a representative immunoblot is shown here.
# The kinase assay to identify direct ABL kinase inhibitors from UCLA MSSR and TSRI hits was performed as described in PubChem BioAssay AID 624303 (https://pubchem.ncbi.nlm.nih.gov/assay/assay.cgi?aid=624303). Purified His6-CrkII was expressed and purified as previously described.
# native ABL1 = test system: native ABL1; design: method as in PMID 16415863, PMID 20072125; settings: cited from earlier work
# [2] = test system: MAPK1/3 phosphorylation in K562 cells; assay: pMAPK in K562 (immunoblot pMAPK1/3 / MAPK1/3); format: cell-based, human; settings: for %inhibition of MAPK1/3 phosphorylation (pMAPK/MAPK ratio): 10 μM, 4 hours at 37°C, vs DMSO control, six biological replicates
# Description: […] Each compound was tested with six biological replicates. Band intensity was quantified using LI-COR Odyssey, and the ratio of pMAPK/MAPK signal intensity is graphed for each compound and its DMSO control. Compounds are identified by their PubChem CID number.
# Membranes were scanned and signal intensity quantified using a Li-Cor Odyssey scanner. To quantify RIN1 expression, signal intensities were first normalized to the housekeeping gene, tubulin. Phospho-MAPK1/3 signal intensities were normalized to total MAPK1/3. Changes in protein expression or phosphorylation were calculated as fold-change compared to control vector.
# K562 with vector or RIN1 overexpression lentivirus were previously described. To analyze MAPK1 phosphorylation, confluent K562 cells were lysed in NP-40 buffer and immunoblotted. […] Cells from each well were harvested, lysed in 400 µL NP-40 and immunoblotted.
# To test each compound, 5x10^5 K562 cells were plated on a 10 cm tissue culture plate and incubated for 3 days. Cells were harvested and the volume brought to 12 mLs with fresh medium. 1 mL of the cells was distributed into each well of a 12-well tissue culture plate. In 6 of the wells, 10 µL of 1 mM compound was added per well. 10 µL of DMSO was added to the remaining wells and mixed by pipetting up and down. Cells were incubated at 37°C and 5% CO2 for 4 hours. After incubation, cells were harvested from each well, lysed in 150 µL of RIPA buffer and analyzed as above.
# K562 cells = assay: K562 proliferation assay (MTS); format: cell-based, human; settings: dose-response 3.125-100 μM, 48 hours, triplicate
# Description: K562 cells were plated 3x10^4 cells/well in 96-well plates. Cells were treated with DMSO or test compound in dose-response (100, 50, 25, 12.5, 6.25, 3.125 μM) to a final DMSO concentration of 1%. After 48 hours of incubation at 37°C, cell proliferation was assessed by MTS assay (Promega CellTiter 96 AQueous One Solution) according to the manufacturer’s protocol. Absorbance at 490nm was read on a PerkinElmer Victor3 plate reader. Experiments were performed in triplicate.
# K562 cells were treated with DMSO or test compound in dose-response. After 48 hours of incubation at 37°C, cell proliferation was assessed by MTS assay. Growth in the presence of test compound was normalized to DMSO-treated K562 cells and results are presented as % of growth relative to control. Experiments were performed in triplicate. (PDF) Click here for additional data file.
# [3] = target: T2, RIN1::ABL1 interaction (RIN1-SBP / ABL1-eGFP) (Homo sapiens, UniProt P00519+Q13671); assay: TR-FRET assay of RIN1::ABL binding; settings: for IC50: 21 hits selected for cell-based assay, concentration-response curves in triplicate
# T2 construct: The ABL1 amino terminus was amplified from AblWT1-531 (gift of Dr. John Kuriyan); TEV site-ProtA-Flag (C, cleaved yes); made in house; host or cells: Sf9 insect cells (baculovirus, pFastBac1)
# Description: To measure binding between purified RIN1 and ABL proteins we designed a quantitative TR-FRET based assay.
# The assay readout was calculated as a ratio of donor and acceptor emissions, a measurement independent of donor and acceptor concentrations that allows for reliable comparison across assays. Assay components were mixed in kinase buffer and incubated for one hour at room temperature to allow for RIN1-Y^36 phosphorylation by ABL1 and subsequent formation of a stable divalent interaction between these proteins. Each multi-well assay plate included negative control samples (streptavidin-terbium, ABL-eGFP and ATP without RIN1-SBP). […]
# [4] = S2 Table, TR-FRET assay, maximal inhibition, read-out: Max response (%)
# T2 sequence (P00519 1-531 isoform P00519-2): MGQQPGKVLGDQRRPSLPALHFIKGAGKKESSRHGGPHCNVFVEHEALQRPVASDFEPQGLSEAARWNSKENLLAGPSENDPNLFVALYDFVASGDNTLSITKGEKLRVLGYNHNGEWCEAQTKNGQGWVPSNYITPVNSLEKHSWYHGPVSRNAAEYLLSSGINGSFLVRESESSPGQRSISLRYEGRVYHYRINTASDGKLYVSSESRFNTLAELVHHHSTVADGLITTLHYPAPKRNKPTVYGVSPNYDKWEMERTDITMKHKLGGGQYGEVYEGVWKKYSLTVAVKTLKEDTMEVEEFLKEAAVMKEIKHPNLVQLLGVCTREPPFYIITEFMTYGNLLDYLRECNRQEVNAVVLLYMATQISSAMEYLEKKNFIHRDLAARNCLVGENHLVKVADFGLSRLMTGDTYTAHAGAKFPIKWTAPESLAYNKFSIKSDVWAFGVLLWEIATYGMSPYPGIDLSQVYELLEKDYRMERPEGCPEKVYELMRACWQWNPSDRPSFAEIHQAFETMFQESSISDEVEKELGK
# T2 sequence (Q13671 whole entry): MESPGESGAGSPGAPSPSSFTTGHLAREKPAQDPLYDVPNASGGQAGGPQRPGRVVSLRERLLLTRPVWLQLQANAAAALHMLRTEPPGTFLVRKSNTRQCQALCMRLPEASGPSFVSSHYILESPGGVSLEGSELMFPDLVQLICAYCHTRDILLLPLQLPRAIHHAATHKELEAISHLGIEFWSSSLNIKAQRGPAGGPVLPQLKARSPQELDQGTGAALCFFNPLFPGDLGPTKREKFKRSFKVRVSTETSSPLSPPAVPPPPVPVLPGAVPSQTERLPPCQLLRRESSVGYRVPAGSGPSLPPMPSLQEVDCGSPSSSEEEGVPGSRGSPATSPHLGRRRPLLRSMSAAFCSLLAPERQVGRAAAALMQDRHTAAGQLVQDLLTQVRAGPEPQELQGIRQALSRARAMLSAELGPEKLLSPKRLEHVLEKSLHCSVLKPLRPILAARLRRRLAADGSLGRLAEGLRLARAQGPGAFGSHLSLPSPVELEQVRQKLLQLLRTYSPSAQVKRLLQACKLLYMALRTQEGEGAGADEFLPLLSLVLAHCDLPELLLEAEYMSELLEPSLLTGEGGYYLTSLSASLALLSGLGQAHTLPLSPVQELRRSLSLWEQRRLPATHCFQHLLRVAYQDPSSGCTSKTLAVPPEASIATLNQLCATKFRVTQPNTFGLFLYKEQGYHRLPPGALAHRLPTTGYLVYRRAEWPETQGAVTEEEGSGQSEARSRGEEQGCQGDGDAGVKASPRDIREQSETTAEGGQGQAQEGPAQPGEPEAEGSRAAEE
# T1 sequence (P00519 1-531 isoform P00519-2): as the sequence (P00519 1-531 isoform P00519-2) above
IC50 ([3]; S2 Table) [nM],"Emax [3, 4] [%]",Compound,%inhibition of MAPK1/3 phosphorylation (pMAPK/MAPK ratio) [2] [%],K562 proliferation (% growth relative to DMSO control) (K562 cells),other results
,,"COc1ccc(CCNc2cc(=O)nc(N)[nH]2)cc1 [CID 1532134, 2-amino-6-[2-(4-methoxyphenyl)ethylamino]-1H-pyrimidin-4-one]",,,ABL kinase activity: CRK and ABL phosphorylation [1]: no activity
,,NC(=O)c1cccc(-c2cc(Nc3ccc(OC(F)(F)F)cc3)ncn2)c1 [GNF-2],,,activity against native ABL1 (native ABL1): no activity
9570,95.7,COc1cccc(CSc2nnc(CSc3nc4nc(C)cc(C)n4n3)s2)c1 [compound 1818178],25 ± 20,decrease K562 proliferation,
2530,86.2,CN(C(=O)c1ccc(NC(=O)Cc2ccc(NC(=O)C3CCN(C(=O)c4ccccc4)CC3)cc2)cc1)C1CC1 [compound 44142745],52 ± 47,decrease K562 proliferation,"Emax ([3]; S4 Table, N-acyl piperidine-4-carboxamide series SAR, RIN1-ABL dose-response curve, read-out: Max Response (%)): 89.1%"
1060,85.2,CN(C(=O)c1ccc(NC(=O)Cc2ccc(NC(=O)C3CCN(C(=O)c4ccc(F)cc4)CC3)cc2)cc1)C1CC1 [compound 56844185],57 ± 13,decrease K562 proliferation,
3670,84.8,COc1ccc(C(=O)N2CCC(C(=O)Nc3ccc(CC(=O)Nc4ccc(C(=O)N(C)C5CC5)cc4)cc3)CC2)cc1 [compound 56844186],75 ± 33,decrease K562 proliferation,
1350,86.8,CN(C(=O)c1ccc(NC(=O)Cc2ccc(NC(=O)C3CCN(C(=O)c4cccc(F)c4)CC3)cc2)cc1)C1CC1 [compound 56844188],75 ± 31,decrease K562 proliferation,
,,"Cc1ccc(NC(=O)c2ccc(CN3CCN(C)CC3)cc2)cc1Nc1nccc(-c2cccnc2)n1 [imatinib, reference compound]",,,"MAPK1/3 phosphorylation signal ([2]; 1 μM imatinib, 1 and 4 hours at 37°C): rapidly decreased"
,,"O=C(O[C@@H]1Cc2c(O)cc(O)cc2O[C@@H]1c1cc(O)c(=O)c2c(O)c(O)cc([C@H]3Oc4cc(O)cc(O)c4C[C@H]3OC(=O)c3cc(O)c(O)c(O)c3)c2c1)c1cc(O)c(O)c(O)c1 [theaflavin-3,3’-digallate]",,,Activity in the TR-FRET screening assay (FRET ratio) ([3]; primary screen): decrease the FRET ratio; ABL kinase activity: CRK and ABL phosphorylation [1]: directly inhibits ABL trans-phosphorylation of CRK as well as ABL
